Assay results as given in patent US4479943A, “3-Demethoxyistamycin B, the 2"-N-formimidoyl derivative thereof and pharmaceutical composition containing same” (Zaidan Hojin Biseibutsu Kagaku Kenkyu Kai, priority 1982, dated 1984).
Values after ≈ are worked out from the molar mass of the structure shown.

Key:
[1] = tested on: Pseudomonas aeruginosa 99; experiment: Antibacterial MIC, standard serial dilution; format: cell-based; conditions: nutrient agar, 37° C., 17 hours, as free base
[2] = tested on: Escherichia coli JR225; experiment: Antibacterial MIC, standard serial dilution; format: cell-based; conditions: nutrient agar, 37° C., 17 hours, as free base
[3] = tested on: Escherichia coli NIHJ; experiment: Antibacterial MIC, standard serial dilution; format: cell-based; conditions: nutrient agar, 37° C., 17 hours, as free base
[4] = tested on: Escherichia coli K-12 R388; experiment: Antibacterial MIC, standard serial dilution; format: cell-based; conditions: nutrient agar, 37° C., 17 hours, as free base
[5] = tested on: Pseudomonas aeruginosa TI-13; experiment: Antibacterial MIC, standard serial dilution; format: cell-based; conditions: nutrient agar, 37° C., 17 hours, as free base
[6] = tested on: Escherichia coli K-12 ML1410; experiment: Antibacterial MIC, standard serial dilution; format: cell-based; conditions: nutrient agar, 37° C., 17 hours, as free base
[7] = tested on: Staphylococcus aureus FDA 209P; experiment: Antibacterial MIC, standard serial dilution; format: cell-based; conditions: nutrient agar, 37° C., 17 hours, as free base
[8] = tested on: Pseudomonas aeruginosa PST1; experiment: Antibacterial MIC, standard serial dilution; format: cell-based; conditions: nutrient agar, 37° C., 17 hours, as free base
[9] = tested on: Proteus rettgeri GN311; experiment: Antibacterial MIC, standard serial dilution; format: cell-based; conditions: nutrient agar, 37° C., 17 hours, as free base
[10] = tested on: Staphylococcus aureus Ap01; experiment: Antibacterial MIC, standard serial dilution; format: cell-based; conditions: nutrient agar, 37° C., 17 hours, as free base
[11] = tested on: Klebsiella pneumoniae 22#3038; experiment: Antibacterial MIC, standard serial dilution; format: cell-based; conditions: nutrient agar, 37° C., 17 hours, as free base
[12] = tested on: Pseudomonas maltophilia GN 907; experiment: Antibacterial MIC, standard serial dilution; format: cell-based; conditions: nutrient agar, 37° C., 17 hours, as free base
[13] = tested on: Staphylococcus epidermidis 109; experiment: Antibacterial MIC, standard serial dilution; format: cell-based; conditions: nutrient agar, 37° C., 17 hours, as free base
[14] = tested on: Pseudomonas aeruginosa ROS 134/PU21; experiment: Antibacterial MIC, standard serial dilution; format: cell-based; conditions: nutrient agar, 37° C., 17 hours, as free base
[15] = tested on: Pseudomonas aeruginosa No. 12; experiment: Antibacterial MIC, standard serial dilution; format: cell-based; conditions: nutrient agar, 37° C., 17 hours, as free base
[16] = tested on: Klebsiella pneumoniae PCI602; experiment: Antibacterial MIC, standard serial dilution; format: cell-based; conditions: nutrient agar, 37° C., 17 hours, as free base
[17] = tested on: Escherichia coli K-12; experiment: Antibacterial MIC, standard serial dilution; format: cell-based; conditions: nutrient agar, 37° C., 17 hours, as free base
[18] = tested on: Mycobacterium smegmatis ATCC 607; experiment: Antibacterial MIC, standard serial dilution; format: cell-based; conditions: nutrient agar, 37° C., 17 hours, as free base
[19] = tested on: Bacillus cereus ATCC 10702; experiment: Antibacterial MIC, standard serial dilution; format: cell-based; conditions: nutrient agar, 37° C., 17 hours, as free base
[20] = tested on: Escherichia coli W677; experiment: Antibacterial MIC, standard serial dilution; format: cell-based; conditions: nutrient agar, 37° C., 17 hours, as free base
[21] = tested on: Staphylococcus aureus Smith; experiment: Antibacterial MIC, standard serial dilution; format: cell-based; conditions: nutrient agar, 37° C., 17 hours, as free base
[22] = tested on: Serratia marcescens; experiment: Antibacterial MIC, standard serial dilution; format: cell-based; conditions: nutrient agar, 37° C., 17 hours, as free base
[23] = tested on: Proteus rettgeri GN466; experiment: Antibacterial MIC, standard serial dilution; format: cell-based; conditions: nutrient agar, 37° C., 17 hours, as free base
[24] = tested on: Escherichia coli K-12 ML1630; experiment: Antibacterial MIC, standard serial dilution; format: cell-based; conditions: nutrient agar, 37° C., 17 hours, as free base
[25] = tested on: Bacillus subtilis NRRL B-558; experiment: Antibacterial MIC, standard serial dilution; format: cell-based; conditions: nutrient agar, 37° C., 17 hours, as free base
[26] = tested on: Shigella sonnei JS11746; experiment: Antibacterial MIC, standard serial dilution; format: cell-based; conditions: nutrient agar, 37° C., 17 hours, as free base
[27] = tested on: Corynebacterium bovis 1810; experiment: Antibacterial MIC, standard serial dilution; format: cell-based; conditions: nutrient agar, 37° C., 17 hours, as free base
[28] = tested on: Bacillus subtilis PCI 219; experiment: Antibacterial MIC, standard serial dilution; format: cell-based; conditions: nutrient agar, 37° C., 17 hours, as free base
[29] = tested on: bacteria; conditions: in words; earlier work; cited from earlier work
[30] = tested on: Escherichia coli K-12 ML1629; experiment: Antibacterial MIC, standard serial dilution; format: cell-based; conditions: nutrient agar, 37° C., 17 hours, as free base
[31] = tested on: Serratia sp. 4; experiment: Antibacterial MIC, standard serial dilution; format: cell-based; conditions: nutrient agar, 37° C., 17 hours, as free base
[32] = tested on: Pseudomonas aeruginosa A3; experiment: Antibacterial MIC, standard serial dilution; format: cell-based; conditions: nutrient agar, 37° C., 17 hours, as free base
[33] = tested on: Pseudomonas aeruginosa H9; experiment: Antibacterial MIC, standard serial dilution; format: cell-based; conditions: nutrient agar, 37° C., 17 hours, as free base
[34] = tested on: Pseudomonas aeruginosa B-13; experiment: Antibacterial MIC, standard serial dilution; format: cell-based; conditions: nutrient agar, 37° C., 17 hours, as free base
[35] = tested on: Sarcina lutea PCI 1001; experiment: Antibacterial MIC, standard serial dilution; format: cell-based; conditions: nutrient agar, 37° C., 17 hours, as free base
[36] = tested on: Escherichia coli K-12 J5R11-2; experiment: Antibacterial MIC, standard serial dilution; format: cell-based; conditions: nutrient agar, 37° C., 17 hours, as free base
[37] = tested on: Salmonella enteritidis 1891; experiment: Antibacterial MIC, standard serial dilution; format: cell-based; conditions: nutrient agar, 37° C., 17 hours, as free base
[38] = tested on: Micrococcus flavus FDA 16; experiment: Antibacterial MIC, standard serial dilution; format: cell-based; conditions: nutrient agar, 37° C., 17 hours, as free base
[39] = tested on: Providencia sp. Pv16; experiment: Antibacterial MIC, standard serial dilution; format: cell-based; conditions: nutrient agar, 37° C., 17 hours, as free base
[40] = tested on: Pseudomonas aeruginosa K-Ps 102; experiment: Antibacterial MIC, standard serial dilution; format: cell-based; conditions: nutrient agar, 37° C., 17 hours, as free base
[41] = tested on: Pseudomonas aeruginosa GN315; experiment: Antibacterial MIC, standard serial dilution; format: cell-based; conditions: nutrient agar, 37° C., 17 hours, as free base
[42] = tested on: Providencia sp. 2991; experiment: Antibacterial MIC, standard serial dilution; format: cell-based; conditions: nutrient agar, 37° C., 17 hours, as free base
[43] = tested on: Shigella dysenteriae JS11910; experiment: Antibacterial MIC, standard serial dilution; format: cell-based; conditions: nutrient agar, 37° C., 17 hours, as free base
[44] = tested on: Proteus vulgaris 0X19; experiment: Antibacterial MIC, standard serial dilution; format: cell-based; conditions: nutrient agar, 37° C., 17 hours, as free base
[45] = tested on: Pseudomonas aeruginosa H11; experiment: Antibacterial MIC, standard serial dilution; format: cell-based; conditions: nutrient agar, 37° C., 17 hours, as free base
[46] = tested on: Escherichia coli JR66/W677; experiment: Antibacterial MIC, standard serial dilution; format: cell-based; conditions: nutrient agar, 37° C., 17 hours, as free base
[47] = tested on: Serratia sp. SOU; experiment: Antibacterial MIC, standard serial dilution; format: cell-based; conditions: nutrient agar, 37° C., 17 hours, as free base
[48] = tested on: Bacillus anthracis; format: cell-based; conditions: nutrient agar, 37° C., 17 hours, as free base
[49] = tested on: Pseudomonas aeruginosa 21-75; experiment: Antibacterial MIC, standard serial dilution; format: cell-based; conditions: nutrient agar, 37° C., 17 hours, as free base
[50] = tested on: Salmonella typhi T-63; experiment: Antibacterial MIC, standard serial dilution; format: cell-based; conditions: nutrient agar, 37° C., 17 hours, as free base

`CNC[C@@H]1CC[C@@H](N)[C@@H](O[C@H]2[C@H](O)[C@H](N(C)C(=O)CN)[C@@H](OC)C[C@H]2N)O1` [B, istamycin B] showed an MIC [1] of 100 µg/mL (≈ 257 µM), an MIC [2] of 1.56 µg/mL (≈ 4.01 µM) and an MIC [3] of 0.39 µg/mL (≈ 1 µM). For the same molecule, the MIC [4] was 0.78 µg/mL (≈ 2 µM), the MIC [5] was 50 µg/mL (≈ 128 µM) and the MIC [6] was 3.13 µg/mL (≈ 8.04 µM). The MIC [7] was 0.39 µg/mL (≈ 1 µM), the MIC [8] was 50 µg/mL (≈ 128 µM) and the MIC [9] was 0.78 µg/mL (≈ 2 µM). For the same molecule, the MIC [10] was 0.78 µg/mL (≈ 2 µM), the MIC [11] was 1.56 µg/mL (≈ 4.01 µM) and the MIC [12] was 100 µg/mL (≈ 257 µM). The MIC [13] was 0.39 µg/mL (≈ 1 µM), the MIC [14] was over 100 µg/mL and the MIC [15] was 50 µg/mL (≈ 128 µM). The MIC [16] was 3.13 µg/mL (≈ 8.04 µM), the MIC [17] was 0.78 µg/mL (≈ 2 µM) and the MIC [18] was 0.78 µg/mL (≈ 2 µM). For the same molecule, the MIC [19] was 6.25 µg/mL (≈ 16 µM), the MIC [20] was 0.78 µg/mL (≈ 2 µM) and the MIC [21] was 0.39 µg/mL (≈ 1 µM). The MIC [22] was 1.56 µg/mL (≈ 4.01 µM), the MIC [23] was 0.78 µg/mL (≈ 2 µM) and the MIC [24] was 3.13 µg/mL (≈ 8.04 µM). It also gave an MIC [25] of 0.39 µg/mL (≈ 1 µM), an MIC [26] of 0.78 µg/mL (≈ 2 µM) and an MIC [27] of 0.39 µg/mL (≈ 1 µM). For the same molecule, the MIC [28] was 0.39 µg/mL (≈ 1 µM), the antibacterial activity [29] was “higher antibacterial activity than istamycin A” and the MIC [30] was 1.56 µg/mL (≈ 4.01 µM). For the same molecule, the MIC [31] was 50 µg/mL (≈ 128 µM), the MIC [32] was 1.56 µg/mL (≈ 4.01 µM) and the MIC [33] was 50 µg/mL (≈ 128 µM). For the same molecule, the MIC [34] was over 100 µg/mL, the MIC [35] was 0.39 µg/mL (≈ 1 µM) and the MIC [36] was 1.56 µg/mL (≈ 4.01 µM). For the same molecule, the MIC [37] was 3.13 µg/mL (≈ 8.04 µM), the MIC [38] was 12.5 µg/mL (≈ 32.1 µM) and the MIC [39] was 1.56 µg/mL (≈ 4.01 µM). For the same molecule, the MIC [40] was 50 µg/mL (≈ 128 µM), the MIC [41] was 50 µg/mL (≈ 128 µM) and the MIC [42] was 3.13 µg/mL (≈ 8.04 µM). It also gave an MIC [43] of 3.13 µg/mL (≈ 8.04 µM), an MIC [44] of 0.39 µg/mL (≈ 1 µM) and an MIC [45] of 100 µg/mL (≈ 257 µM). It also gave an MIC [46] of 1.56 µg/mL (≈ 4.01 µM), an MIC [47] of 25 µg/mL (≈ 64.2 µM) and an MIC [48] of 0.78 µg/mL (≈ 2 µM). For the same molecule, the MIC [49] was 100 µg/mL (≈ 257 µM) and the MIC [50] was 0.39 µg/mL (≈ 1 µM).
